Patent US9927437B2, “Treating neurodegenerative disease” (THE BRIGHAM AND WOMEN'S HOSPITAL, INC., priority 2013, dated 2018)

How the values were obtained:
T cells = experiment: T-cell response in EAE mice (recall proliferation, cytokines, polarization); format: in vivo, mouse
Procedure: FIGS. 9a-d. Depletion of reactive astrocytes reduces the recruitment of peripheral leukocytes to the CNS. (a-d). EAE was induced in WT or GFAP^TK F1 hybrid mice and Ganciclovir (GCV) or vehicle control (PBS) was administered as in FIG. 1b. Data are representative of three independent experiments with n≥7 mice/group (means and s.e.m.). (a) Effect of GCV administration on reactive astrocytes detected by GFAP staining (b) Recruitment of monocytes (red gate) and lymphocytes (green gate) to the CNS assessed by FACS. Data are representative of three independent experiments. Statistical analysis by Student's t-test. (c, d) Effect of the depletion of reactive astrocytes during the chronic phase of EAE on the recall proliferative response to MOG(35-55) or anti-CD3 (c) and the expression of IFN-γ, IL-17A, Foxp3 and IL-10 in splenic CD4+ T cells (d). *P<0.05, and (n.s) not significant.
FIGS. 12a-i. […] (a) Naïve C57BL/6 (Left panel) and NOD (right panel) mice were treated with LacCer (10 μg per mouse) or vehicle as indicated by red arrows, and EAE clinical scores was recorded. At experimental end point (day 25), astrocytes were isolated and their transcriptional profile was determined by nCounter Nanostring analysis. (b-e) EAE was induced in C57BL/6 (b, c) or NOD mice (d, e) and LacCer or vehicle were administrated as in FIGS. 1g and 1h, respectively. Splenic T-cell recall response to MOG(35-55) (20 μg/ml); proliferation (b, d) and secretion of IL-17A, IFN-γ and IL-10 cytokines (c, e). Data are representative of two independent experiments with ≥8 mice/group (mean and s.e.m.). (f-i) EAE NOD mice were treated with PDMP or vehicle during the chronic phase as in FIG. 1K. Data are representative of three independent experiments with n≥8 mice/group (mean and s.e.m.). (f) qPCR analysis of the expression of tbx21, ifng, rorc, il17A, csf2, il10, foxp3, and tgfb1 mRNA of CD3^+CD4^+ T-cells isolated from the CNS; expression is presented relative to gapdh. (g, h) Recall response to MOG(35-55) (20 μg/ml); proliferation (g) and secretion of IL-17A, IFN-γ and IL-10 cytokines (h). (i) Expression of IFN-γ, IL-17A, Foxp3 and IL-10 by splenic CD3^+CD4^+ T cells (mean and s.e.m.).
Splenocytes and lymph node cells were cultured in X-VIVO medium and were plated for 72 h at a density of 5×10^5 cells per well in the presence of MOG35-55 peptide. During the final 16 h, cells were pulsed with […] [3H]thymidine (PerkinElmer), followed by collection on glass fiber filters and analysis of incorporated [3H]thymidine in a-counter (1450 MicroBeta TriLux; PerkinElmer). Supernatants were collect after 48 h of culture for cytokine measurement by enzyme-linked immunosorbent assay^14. For intracellular cytokine staining, cells were stimulated for 6 h with PMA (phorbol 12-myristate 13-acetate; 50 ng/ml; Sigma), ionomycin (1 μg/ml; Sigma) and monensin (GolgiStop; […]; BD Biosciences). After staining of surface markers, cells were fixed and made permeable according to the manufacturer's instructions BD Cytofix/Cytoperm™ Kit (BD Biosciences), or Foxp3 Fixation/Permeabilization (Ebiosceince).

primary mouse microglia = experiment: Viability assay, microglia; format: cell-based; conditions: absence of astrocytes, LPS/IFNγ
Description: FIGS. 5a-m. B4GALT6 in astrocytes regulates the activation of microglia and CNS-infiltrating monocytes. (a) Heatmap depicting mRNA expression, as determined by nCounter Nanostring analysis, in microglia from naïve or EAE NOD mice treated with PDMP or vehicle. Representative data of three independent experiments. Statistical analysis by Student's t-test. (b) qPCR analysis of ccl5, il1b, opn, nos2, cd40, and H2-Aa gene expression relative to Gapdh. (c, d) Mean normalized expression of genes associated with M1- or M2-phenotype in microglia (Table 3) (c) and Ly6C^high monocytes (d). Statistical analysis by Student's t-test. (e-h) primary microglia were pre-treated with PDMP, LacCer, or vehicle, followed by activation with LPS/IFNγ for 6 h or left un-treated (control) as in (FIG. 3a). mRNA expression was determined by nCounter Nanostring analysis (e, g), and microglial viability was determined (f, h). Representative data of five independent experiments. […] RNA was harvested from microglia treated in the absence [MG (pure)] or presence [MG (mixed)] of astrocytes and gene expression was analyzed by qPCR for the expression ccl2, ccl5 and nos2 relative to gapdh. […] Microglia were isolated as in (i), and microglial-nos2 expression was determined by qRT relative to gapdh and presented as in (i). […]

Q: What does the source list for `CCCCCCCCCC(=O)N[C@H](CN1CCOCC1)[C@H](O)c1ccccc1` [PDMP, D-threo-1-phenyl-2-decanoylamino-3-morpholino-1-propanol]?
A: T-cell response (T cells; NOD EAE, PDMP-treated mice, chronic phase): No significant changes; viability of cultured primary mouse microglia (primary mouse microglia): neither the viability nor the response of cultured primary mouse microglia to LPS/IFNγ was affected

Q: With lactosylceramide [LacCer] as the compound, how does the T-cell response (T cells; C57BL/6 and NOD EAE after LacCer administration) read?
A: not linked to changes in the T-cell response

Q: And the “viability of cultured primary mouse microglia” value (primary mouse microglia)?
A: neither the viability nor the response of cultured primary mouse microglia to LPS/IFNγ was affected
